The text below walks through data of patent publication US20250214977A1, “STAT6 INHIBITORS AND USES THEREOF” (Kymera Therapeutics, Inc., priority 2024, published 2025).

Some results are limits rather than exact numbers.

This assay has as its system Phosphorylation of STAT6 in human A549 cells. Kind of assay: Phosphorylated STAT6 (pSTAT6) flow cytometry assay in human A549 cells. In kind it is cell-based. The settings on record: read-out: STAT6 IL4 pSTAT6 assay in A549 cells: Average IC50. From the text:
Example 3. Phosphorylated STAT6 (pSTAT6) Flow Cytometry Assay in Human A549 Cells
Phosphorylation of STAT6 in human A549 cells was quantitatively measured using flow cytometry technology.
In general terms: In flow cytometry, cells or beads pass a laser one at a time.

For `CN(C(=O)c1cc2c(-c3cncnc3C3CC3)cc(C3=CCCN(C(=O)CCn4ccnn4)C3)c(F)c2[nH]1)C1CC1` [Example I-1043], the IC50 – broadly, the concentration at which inhibition is half-maximal – is above 100000 nM. Take `COc1cccnc1N1CCN(C(=O)c2cc3c(-n4nc(C)cc4C)cc(C4=CCCN(C(=O)CCn5ccnn5)C4)c(F)c3[nH]2)CC1` [Example I-586]: the half-inhibitory concentration (IC50) was below 100 nM. In the case of `COc1ncccc1-c1cc(C2=CCCN(C(=O)CCn3ccnn3)C2)c(F)c2[nH]c(C(=O)N3CCN(c4ncccc4OC4CC4)CC3)cc12` [Example I-595], the IC50 was below 100 nM. Next, `COc1ccccc1-c1cc(C2=CCCN(C(=O)CCn3ccnn3)C2)c(F)c2[nH]c(C(=O)N3CCN(Cc4cccn(C)c4=O)CC3)cc12` [Example I-1198]: below 100 nM; `CCc1ccncc1-c1cc(C2=CCC[C@H](C(=O)O)C2)c(F)c2[nH]c(C(=O)N3CCN(c4ncc(F)cc4OC)CC3)cc12` (single isomer, unassigned) [Example I-809]: above 100000 nM; `COc1cccnc1N1CCN(C(=O)c2cc3c(-c4cnccc4OC4CC4)cc(C4=CCCN(C(=O)CCn5ccnn5)C4)c(F)c3[nH]2)CC1` [Example I-556]: below 100 nM. The value for `COc1ccccc1-c1cc(C2=CCCN(C(=O)CCn3ccnn3)C2)c(F)c2[nH]c(C(=O)N3CCN(C(=O)N(C)C)CC3)cc12` [Example I-866] was below 100 nM; that for `COc1cccnc1N1CCN(C(=O)c2cc3c(-c4ccccc4OC(F)(F)F)cc(C4=CCCN(C(=O)CCn5ccnn5)C4)c(F)c3[nH]2)CC1` [Example I-558] was below 100 nM; that for `COc1cnccc1-c1cc(C2=CCCN(C(=O)CCn3ccnn3)C2)c(F)c2[nH]c(C(=O)N3CCN(c4ncc(C(F)(F)F)cc4OC)CC3)cc12` [Example I-435] was below 100 nM.

Turning to `CCOC(=O)C(=O)N1CCC=C(c2cc3cc(C(=O)N4Cc5cnn(CC)c5C4)cc(-c4ccc(CC)nc4C)c3n2CC2CC2)C1` [Example I-799], the IC50 is above 100000 nM. Turning to `CC(=O)N1CCC=C(c2cc(-c3ccc(C)cc3O)c3cc(C(=O)N(C)C)[nH]c3c2F)C1` [Example I-886], the IC50 lay in the range of 100 to 1000 nM. `COc1ccccc1-c1cc(C2=CCCN(C(=O)CCn3ccnn3)C2)c(F)c2[nH]c(C(=O)N3CCN(c4ncn5c4CCCC5)CC3)cc12` [Example I-1034]: the IC50 is below 100 nM. In the case of `COc1ccccc1-c1cc(C2=CCCN(C(=O)CCn3ccnn3)C2)c(F)c2[nH]c(C(=O)Nc3cccn(C)c3=O)cc12` [Example I-1027], the IC50 was in the range of 100 to 1000 nM.

As to `CNc1ccc(-c2cc([C@H]3CCCN(C(=O)CCn4ccnn4)C3)cc3[nH]c(C(=O)N(C)C)cc23)c(OC)c1` (single isomer, unassigned) [Example I-1194], the IC50 is below 100 nM. For `COc1ccncc1-c1cc(C2=CCCN(C(=O)CCn3ccnn3)C2)c(F)c2[nH]c(C(=O)N3CCN(c4ncc(C5CC5)cc4OC)CC3)cc12` [Example I-438], the IC50 was below 100 nM. On to `COc1cc(F)cnc1N1CCN(C(=O)c2cc3c(-c4ccc(C(F)F)cc4)cc(C4=CCCN(C(=O)CCn5ccnn5)C4)c(F)c3[nH]2)CC1` [Example I-1160], for which the IC50 is below 100 nM. Turning to “5-(1-(2-formyl-1,2,3,4-tetrahydroisoquinoline-3-carbonyl)-1,2,5,6-tetrahydropyridin-3-yl)-7-(2-methoxyphenyl)-N,N-dimethylbenzofuran-2-carboxamide [Example I-803]”, the IC50 is above 100000 nM.

On to `COc1ccncc1-c1cc(C2=CCCN(C(=O)CCn3ccnn3)C2)c(F)c2[nH]c(C(=O)N3CCN(c4nc(C)ccc4OC)CC3)cc12` [Example I-433], for which the IC50 was above 100000 nM.

With `C#CCOC1CCN(C(=O)c2cc3c(-c4ccccc4OC)cc(C4=CCCN(C(=O)CCn5ccnn5)C4)c(F)c3[nH]2)CC1` [Example I-1001], the IC50 is below 100 nM. Next, `CCc1ccccc1-c1cc(C2=CCCN(C(=O)CCn3cccn3)C2)c(F)c2[nH]c(C(=O)N3CCN(c4ncc(F)cc4OC)CC3)cc12` [Example I-662]: below 100 nM; `CN(C)C(=O)c1cc2cc(C3=CCCN(C(=O)C(Cn4ccnn4)c4cccc(C#N)c4)C3)ccc2o1` (stereo not shown) [Example I-835]: 100 to 1000 nM; `CCc1nccn1-c1cc(C2=CCCN(C(=O)CCn3ccnn3)C2)c(F)c2[nH]c(C(=O)N3CCN(c4ncccc4OC)CC3)cc12` [Example I-692]: above 100000 nM. `COc1cc(F)cnc1N1CCN(C(=O)c2cc3c(-c4cncc(C5CC5)c4)cc(C4=CCCN(C(=O)CCn5ccnn5)C4)c(F)c3[nH]2)CC1` [Example I-637]: the 50% inhibitory concentration (IC50) was below 100 nM.

Regarding `CCc1cc(C)ncc1-c1cc(C2=CCCN(C(=O)CCn3cccn3)C2)c(F)c2[nH]c(C(=O)N3CCN(c4nc(C)c(F)cc4OC)CC3)cc12` [Example I-738], the concentration for half-maximal inhibition (IC50) was below 100 nM. As to `COc1cccnc1N1CCN(C(=O)c2cc3c(-c4cnccc4C(C)C)cc(C4=CCCN(C(=O)CCn5ccnn5)C4)c(F)c3[nH]2)CC1` [Example I-607], the IC50 was above 100000 nM. `COc1cc(F)cnc1N1CCN(C(=O)c2cc3c(-c4ccc(NC5CCCC5)cc4)cc(C4=CCCN(C(=O)CCn5ccnn5)C4)c(F)c3[nH]2)CC1` [Example I-1124]: the IC50 lay within 100 to 1000 nM.

`COc1ccccc1-c1cc(C2CN(C(=O)CCn3ccnn3)CC(F)(F)C2)c(F)c2[nH]c(C(=O)N3Cc4cnn(C)c4C3)cc12` (stereo not shown) [Example I-512]: the IC50 was below 100 nM. On to `COc1cccnc1N1CCN(C(=O)c2cc3c(-c4cccc(C)c4OC)cc(C4=CCCN(C(=O)CCn5ccnn5)C4)c(F)c3[nH]2)CC1` [Example I-560], for which the IC50 is below 100 nM. With `COc1cc(F)cnc1N1CCN(C(=O)c2cc3c(-c4cncc(OC(C)C)c4)cc(C4=CCCN(C(=O)CCn5ccnn5)C4)c(F)c3[nH]2)CC1` [Example I-655], the IC50 is below 100 nM.

On to `CN(C)C(=O)c1cc2cc(C3=CCCN(C(=O)C4Cc5c(N)cccc5CN4C=O)C3)ccc2o1` (stereo not shown) [Example I-372], for which the IC50 is 100 to 1000 nM. In the case of `COc1cccnc1N1CCN(C(=O)c2cc3c(-c4cccc(F)c4F)cc(C4=CCCN(C(=O)CCn5ccnn5)C4)c(F)c3[nH]2)CC1` [Example I-371], the IC50 is below 100 nM.

As for `COc1ccccc1-c1cc(C2=CCCN(C(=O)CCn3ccnn3)C2)c(F)c2[nH]c(C(=O)N3CCC(=O)N(C)CC3)cc12` [Example I-994], the IC50 is below 100 nM. Take `COc1ccncc1-c1cc(C2=CCCN(C(C)=O)C2)c(F)c2[nH]c(C(=O)N(C)C)cc12` [Example I-1094]: the IC50 was below 100 nM. On to `COc1ccccc1-c1cc(C2=CCCN(C(=O)CCn3ccnn3)C2)c(F)c2[nH]c(C(=O)N3CCN(c4ccc(C)cc4)CC3)cc12` [Example I-860], for which the IC50 is 100 to 1000 nM.

Consider `COc1ccccc1-c1cc(C2=CCCN(C(=O)CCn3ccnn3)C2)c(F)c2[nH]c(C(=O)N3CCN(c4c(F)cc(F)cc4OC)CC3)cc12` [Example I-432], for which the IC50 is below 100 nM. The value for `COc1ccccc1-c1cc(C2=CCCN(C(C)=O)C2)c(F)c2sc(C(=O)N(C)C)cc12` [Example I-552] was 100 to 1000 nM. As for `COc1cnccc1-c1cc(C(=O)N2CCN(c3ncc(F)cc3OC)CC2)cc2cc(C3=CCCN(C(=O)CCn4ccnn4)C3)n(CC3CC3)c12` [Example I-729], the IC50 is below 100 nM.

For `COc1cc(F)cnc1N1CCN(C(=O)c2cc3c(-c4cnccc4C(C)C)cc(C4=CCCN(C(=O)CCn5ccnn5)C4)c(F)c3[nH]2)CC1` [Example I-668], the IC50 is above 100000 nM. In the case of `COc1ccccc1-c1cc(C2=CCCN(C(=O)CCn3ccnn3)C2)c(F)c2[nH]c(C(=O)N3CCN(c4cccc(=O)n4C)CC3)cc12` [Example I-1020], the IC50 is below 100 nM. As for `CCCN1CCN(C(=O)c2cc3c(-c4ccccc4OC)cc(C4=CCCN(C(=O)CCn5ccnn5)C4)c(F)c3[nH]2)C[C@@H]1C` [Example I-997], the IC50 is below 100 nM. With `CCOc1ccncc1-c1cc(C2=CCCN(C(=O)CCn3ccnn3)C2)c(F)c2[nH]c(C(=O)N3CCN(c4ccccc4OC)CC3)cc12` [Example I-406], the IC50 is above 100000 nM.

`COc1ccccc1-c1cc(C2=CCCN(C(=O)CCn3ccnn3)C2)c(F)c2[nH]c(C(=O)N3CCN(C4CC(F)(F)C4)CC3)cc12` [Example I-501]: the IC50 is 10000 to 100000 nM. For the molecule `COc1ccccc1-c1cc(C2=CCCN(C(=O)CCn3ccnn3)C2)c(F)c2[nH]c(C(=O)N3CCNC(=O)[C@@H]3C)cc12` [Example I-996], the IC50 is below 100 nM.

For the molecule `Cc1cc(C)c(-c2cc(C3=CCCN(C(=O)CCn4ccnn4)C3)cc3cc(C(=O)N(C)C)oc23)cc1C` [Example I-856], the IC50 is below 100 nM. For `COc1cccc(C2=CCN(C(=O)c3cc4c(-c5cnccc5OC)cc(C5=CCCN(C(=O)CCn6ccnn6)C5)c(F)c4[nH]3)CC2)n1` [Example I-443], the IC50 was below 100 nM. In the case of `COc1ccccc1-c1cc(C2=CCCN(C(=O)CCn3ccnn3)C2)c(F)c2[nH]c(C(=O)N3CCN(c4ncccc4OC4CC4)CC3)cc12` [Example I-336], the IC50 is below 100 nM.

Consider `CCc1nc(C)ccc1-c1cc(C(=O)N2CCN(c3ncc(F)cc3OC)CC2)cc2cc(C3=CCCN(C(=O)CC(=O)O)C3)n(CC)c12` [Example I-794], for which the IC50 is below 100 nM.

`COc1ccccc1-c1cc(C2=CCCN(C(=O)CCn3ccnn3)C2)c(F)c2[nH]c(C(=O)N3CCN(c4cc(F)c5nc(C)n(C(C)C)c5c4)CC3)cc12` [Example I-340]: the IC50 is below 100 nM. Turning to `CCc1cc(C)ncc1-c1cc(C2=CCCN(C(=O)CCc3nccs3)C2)c(F)c2[nH]c(C(=O)N3CCN(c4nc(C)ccc4OC)CC3)cc12` [Example I-526], the IC50 is below 100 nM. In the case of `CCC1=C(c2cc(C3=CCCN(C(=O)CCn4ccnn4)C3)c(F)c3[nH]c(C(=O)N4CCN(c5ncc(F)cc5OC)CC4)cc23)CN(C)CC1` [Example I-730], the IC50 was below 100 nM. For `COc1cccc(N2CCN(C(=O)c3cc4c(-c5cnccc5OC)cc(C5=CCCN(C(=O)CCn6ccnn6)C5)c(F)c4[nH]3)CC2)n1` [Example I-440], the IC50 is below 100 nM.

Take `CCc1cnccc1-c1cc(C(=O)N2CCN(c3ncc(F)cc3OC)CC2)cc2cc(C3=CCCN(C(=O)C(=O)O)C3)n(CC3CC3)c12` [Example I-796]: the IC50 is above 100000 nM.
